In US20240041042A1, “1-(PYRIDYL)-5-AZINYLPYRAZOLE DERIVATIVES, AND THEIR USE FOR CONTROL OF UNDESIRED PLANT GROWTH” (Bayer Aktiengesellschaft, priority 2020, published 2024):
Read-outs that look alike come from different tables or passages of the source.

Columns and labels:
Format in all cases: in vivo
Brassica napus (BRSNW) [1] = experiment: Post-emergence crop plant compatibility, BRSNW; conditions: effect in comparison to untreated controls
Procedure: (§1) Seeds of monocotyledonous and dicotyledonous weeds and crop plants are placed in sandy loam in plastic or organic planting pots, covered with soil and cultivated in a greenhouse under controlled growth conditions. 2 to 3 weeks after sowing, the test plants are treated at the one-leaf stage. The compounds of the invention, formulated in the form of wettable powders (WP) or as emulsion concentrates (EC), are then sprayed onto the green parts of the plants as aqueous suspension or emulsion with addition of 0.5% additive at a water application rate of 600 l/ha (converted). After the test plants have been kept in the greenhouse under optimum growth conditions for about 3 weeks, the activity of the preparations is rated visually in comparison to untreated controls. For example, 100% activity=the plants have died, 0% activity=like control plants.
(§2) The observed effects on selected crop plants are reported here in comparison to the untreated controls (values in %). The appendices “a”, “b” and “c” give differentiation by dosage used with otherwise the same crop plants tested.

[2] = tested on: Triticum aestivum (TRZAS); conditions: crop plant compatibility, effect vs untreated controls
Method in brief: (§3)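 Percent effect on the crop was judged by eye against untreated controls, where 0% means like control and 100% means dead plants. Plants had been sprayed post-emergence at the one-leaf stage and then kept under optimum greenhouse conditions for about 3 weeks.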

Zea mays (ZEAMX) [3] = conditions: for Post-emergence action against ZEAMX in % (crop plant compatibility): 20 g/ha, effect in comparison to untreated controls; for Post-emergence action against ZEAMX in %: crop plant compatibility, effect vs untreated controls
Method in brief: as §3

Oryza sativa (ORYSA) [4] = conditions: crop plant compatibility
Method in brief: as §3

Glycine max (GLXMA) [5] = experiment: Post-emergence crop plant compatibility, GLXMA; conditions: post-emergence, effect in comparison to untreated controls
Procedure: as §1, §2

[6] = tested on: Triticum aestivum (TRZAS); conditions: pre-emergence, crop plant compatibility, in comparison to untreated controls
Method in brief: (§4)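 Scoring: visual, % of untreated control, about 3 weeks after a pre-emergence application to the soil surface. Application used WP or EC formulations diluted in water with 0.5% additive at 600 l/ha; dosage levels are marked by suffixes a, b and c.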

Brassica napus (BRSNW) [7] = conditions: crop plant compatibility, in comparison to untreated controls
Method in brief: as §4

Zea mays (ZEAMX) [8] = conditions: pre-emergence, crop plant compatibility, in comparison to untreated controls
Method in brief: as §4

Glycine max (GLXMA) [9] = conditions: pre-emergence, crop plant compatibility, in comparison to untreated controls
Method in brief: as §4

Oryza sativa (ORYSA) [10] = conditions: pre-emergence, crop plant compatibility, in comparison to untreated controls
Method in brief: as §4

[11] = tested on: Amaranthus retroflexus (AMARE); experiment: Post-emergence herbicidal action against AMARE; conditions: 80 g/ha, visual rating about 3 weeks after treatment vs untreated controls (100% = plants have died, 0% = like control plants)
Method in brief: (§5)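 Post-emergence greenhouse spray, one-leaf stage, 600 l/ha water plus 0.5% additive; WP or EC formulations; application rates 320 g/ha or lower. Visual % damage vs untreated controls at ~3 weeks.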

Lolium rigidum (LOLRI) = experiment: Pre-emergence herbicidal action against LOLRI; conditions: dosage 320 g/ha
Method in brief: (§6)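 Greenhouse pot trial: seeds sown, soil-covered, sprayed before emergence with compound in water (0.5% additive; 600 l/ha; ≤320 g/ha). Scoring visual, ~3 weeks, 0–100% scale vs untreated.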

Setaria viridis (SETVI) [12] = experiment: Pre-emergence herbicidal action against SETVI; conditions: dosage 320 g/ha
Method in brief: as §6

Viola tricolor (VIOTR) [13] = experiment: Pre-emergence herbicidal action against VIOTR; conditions: 320 g/ha, Viola tricolor
Method in brief: as §6

[14] = tested on: Alopecurus myosuroides (ALOMY); experiment: Pre-emergence herbicidal action against ALOMY; conditions: 320 g/ha; scored visually after about 3 weeks; 100% = plants have died
Method in brief: as §6

[15] = tested on: Verconica persica (VERPE); experiment: Pre-emergence herbicidal action against VERPE; conditions: dosage 320 g/ha
Method in brief: as §6

[16] = tested on: Amaranthus retroflexus (AMARE); experiment: Pre-emergence herbicidal action against AMARE; conditions: 320 g/ha, visual scoring after about 3 weeks vs untreated controls
Method in brief: as §6

[17] = tested on: Digitaria sanguinalis (DIGSA); experiment: Pre-emergence herbicidal action against DIGSA
Method in brief: as §6

Viola tricolor (VIOTR) [18] = experiment: Post-emergence herbicidal action against VIOTR; conditions: 320 g/ha
Method in brief: as §5

[19] = tested on: Polygonum convolvulus (POLCO); experiment: Pre-emergence herbicidal action against POLCO; conditions: dosage 320 g/ha
Method in brief: as §6

[20] = tested on: Echinochloa crus-galli (ECHCG); experiment: Post-emergence herbicidal action against ECHCG; conditions: dosage 320 g/ha
Method in brief: as §5

Setaria viridis (SETVI) [21] = experiment: Post-emergence herbicidal action against SETVI; conditions: dosage 320 g/ha
Method in brief: as §5

[22] = tested on: Verconica persica (VERPE); experiment: Post-emergence herbicidal action against VERPE; conditions: 320 g/ha, VERPE
Method in brief: as §5

[23] = 20 g/ha, effect vs untreated controls
[24] = 80 g/ha, effect in comparison to untreated controls
[25] = 320 g/ha, effect in comparison to untreated controls

SMILES | Post-emergence action against BRSNW in % (Brassica napus (BRSNW) [1]; 20 g/ha) [%] | Post-emergence action against BRSNW in % (Brassica napus (BRSNW) [1]; 80 g/ha) [%] | Post-emergence action against TRZAS in % ([2]; 20 g/ha) [%] | Post-emergence action against TRZAS in % ([2]; 80 g/ha) [%] | Post-emergence action against ZEAMX in % (crop plant compatibility) (Zea mays (ZEAMX) [3]) [%] | Post-emergence action against ZEAMX in % (Zea mays (ZEAMX) [3]; 80 g/ha) [%] | Post-emergence action against ORYSA in % (Oryza sativa (ORYSA) [4]; [23]) [%] | Post-emergence action against ORYSA in % (Oryza sativa (ORYSA) [4]; [24]) [%] | Post-emergence action against GLXMA in % (Glycine max (GLXMA) [5]; 20 g/ha) [%] | Post-emergence action against GLXMA in % (Glycine max (GLXMA) [5]; 80 g/ha) [%] | Pre-emergence action against TRZAS in % ([6]; 80 g/ha) [%] | Pre-emergence action against TRZAS in % ([6]; 320 g/ha) [%] | Pre-emergence action against BRSNW in % (Brassica napus (BRSNW) [7]; 80 g/ha) [%] | Pre-emergence action against BRSNW in % (Brassica napus (BRSNW) [7]; 320 g/ha) [%] | Pre-emergence action against ZEAMX in % (Zea mays (ZEAMX) [8]; 80 g/ha) [%] | Pre-emergence action against ZEAMX in % (Zea mays (ZEAMX) [8]; 320 g/ha) [%] | Pre-emergence action against GLXMA in % (Glycine max (GLXMA) [9]; 80 g/ha) [%] | Pre-emergence action against GLXMA in % (Glycine max (GLXMA) [9]; 320 g/ha) [%] | Pre-emergence action against ORYSA in % (Oryza sativa (ORYSA) [10]; 80 g/ha) [%] | Pre-emergence action against ORYSA in % (Oryza sativa (ORYSA) [10]; 320 g/ha) [%] | other results
C[C@@H](Oc1nn(-c2ncccc2F)c(-c2ccc(F)nc2)c1Br)C(=O)O [Example I-50] | 10 | 20 | 10 | 10 | 0 | 0 | 10 | 10 | 0 | 10 | 10 | 10 | 0 | 20 | 0 | 0 | – | – | – | – | –
COC(=O)C1CCCN(C(=O)COc2nn(-c3ccccn3)c(-c3ccc(F)nc3)c2Br)C1 (stereo not drawn) [Example I-108] | 10 | – | 0 | 20 | 0 | 10 | 0 | 10 | 0 | 10 | 0 | 10 | 10 | 20 | 10 | 10 | 0 | 0 | 0 | 10 | –
COC(=O)CNC(=O)COc1nn(-c2ccccn2)c(-c2ccc(F)nc2)c1C1CC1 [Example I-70] | 20 | – | 0 | 10 | 0 | 10 | 0 | 0 | – | – | 10 | – | 20 | – | 0 | 0 | 10 | – | 0 | 10 | Post-emergence action against AMARE in % [11]: 90%; Pre-emergence action against LOLRI in % (Lolium rigidum (LOLRI)): 90%; Pre-emergence action against SETVI in % (Setaria viridis (SETVI) [12]): 90%; Pre-emergence action against VIOTR in % (Viola tricolor (VIOTR) [13]): 90%; Pre-emergence action against ALOMY [14]: 90%; Pre-emergence action against VERPE in % [15]: 80%; Pre-emergence action against AMARE in % [16]: 90%
CCOC(=O)COc1nn(-c2ncccc2F)c(-c2ccc(F)nc2)c1I [Example I-55] | 0 | 0 | 0 | 0 | 0 | 0 | 0 | 0 | 0 | 0 | 0 | 0 | 0 | 0 | 0 | 0 | 0 | 0 | 0 | 0 | –
CCOC(=O)C(Oc1nn(-c2ccccn2)c(-c2ccc(F)nc2)c1Br)C(C)C (stereo not drawn) [Example I-349] | – | 20 | – | – | – | – | – | 0 | – | 0 | 10 | – | – | – | 10 | 20 | 0 | 10 | – | – | Pre-emergence action against DIGSA in % ([17]; 80 g/ha, visual scoring after about 3 weeks vs untreated controls): 80%; Pre-emergence action against DIGSA in % ([17]; dosage 320 g/ha): 90%; Pre-emergence action against VIOTR in % (Viola tricolor (VIOTR) [13]): 80%; Post-emergence action against ORYSA in % (Oryza sativa (ORYSA) [4]; [25]): 10%; Post-emergence action against VIOTR in % (Viola tricolor (VIOTR) [18]): 80%; Pre-emergence action against POLCO in % [19]: 80%
COC(=O)CNC(=O)COc1nn(-c2cccnc2C)c(-c2cncc(F)c2)c1Br [II-37] | 0 | – | 0 | 0 | 0 | 0 | 0 | 0 | 0 | – | – | – | – | – | – | – | – | – | – | – | Post-emergence action against ECHCG in % [20]: 80%; Post-emergence action against SETVI in % (Setaria viridis (SETVI) [21]): 80%; Post-emergence action against VERPE in % [22]: 90%; Post-emergence action against TRZAS in % ([2]; 320 g/ha): 0%; Post-emergence action against ZEAMX in % (Zea mays (ZEAMX) [3]; 320 g/ha): 0%; Post-emergence action against ORYSA in % (Oryza sativa (ORYSA) [4]; [25]): 0%; Post-emergence action against VIOTR in % (Viola tricolor (VIOTR) [18]): 80%
